Measured values taken from paper PMC8522722, “Safety and Pharmacokinetics in Human Volunteers of Taniborbactam (VNRX-5133), a Novel Intravenous β-Lactamase Inhibitor” (Antimicrobial Agents and Chemotherapy, 2021).

Experiments:
[1] = Safety and tolerability, treatment-emergent adverse events, SAD part; format: in vivo, human
Protocol: Eligible subjects were randomized to receive either taniborbactam or placebo in a 3:1 ratio within dose cohorts in both the SAD and MAD parts of the study. Each dose cohort in the SAD part of the study enrolled 8 subjects, and each dose cohort in the MAD part of the study enrolled 12 subjects. In the SAD part, subjects received 62.5, 125, 250, 500, 1,000, or 1,500 mg taniborbactam as a 2-h intravenous (i.v.) infusion. In the MAD part, subjects received 2-h intravenous i.v. infusions of 250, 500, or 750 mg taniborbactam q8h over 10 days, ending after a final morning dose on day 10 (total of 28 doses).
Safety was assessed based on the occurrence of adverse events and evaluation of laboratory tests (chemistry, hematology, urinalysis), physical examination, vital signs, and 12-lead electrocardiograms (ECGs) that were performed throughout the study. Safety was followed through 7 days postdose in the SAD part and followed through 7 days post-last dose in the MAD part.

[2] = Cardiodynamic ECG assessment and concentration-QT effect model (SAD part); format: in vivo, human
Protocol: ECG and pharmacokinetic data from the SAD part of the study were used to construct a concentration-QT effect model to assess potential QT effects. The primary cardiodynamic safety parameter was the corrected QT interval by Fredericia (QTcF). The potential impact of taniborbactam on other ECG intervals and T-wave morphology was also assessed. The ECG monitoring in the study was intensive, with continuous Holter 12-lead ECGs recorded on day 1. ECG data used in the modeling consisted of extracted replicates at time points that matched the pharmacokinetic data. The concentration-QT effect model included the entire single-dose range of between 62.5 mg and 1,500 mg taniborbactam.

## NCCN[C@H]1CC[C@H](CC(=O)N[C@H]2Cc3cccc(C(=O)O)c3OB2O)CC1 [Taniborbactam]
[1]; SAD and MAD parts
  deaths, serious adverse events, adverse events leading to discontinuation: no deaths, serious adverse events, or adverse events leading to discontinuation
[1]; in vivo
  Adverse event: Abdominal pain: 1 (2.8) No. (%)
  Adverse event: Arthralgia: 1 (2.8) No. (%)
  Adverse event: Back pain: 1 (2.8) No. (%)
  Adverse event: Headache: 1 (2.8) No. (%)
  Adverse event: Increased blood CPK: 1 (2.8) No. (%)
  Adverse event: Increased hepatic enzyme: 1 (2.8) No. (%)
  Adverse event: Migraine: 1 (2.8) No. (%)
  Adverse event: Nausea: 1 (2.8) No. (%)
  Adverse event: Pharyngitis: 0 (0.0) No. (%)
  Adverse event: Viral URI: 1 (2.8) No. (%)
  Adverse event: Vomiting: 1 (2.8) No. (%)
  changes in vital signs, clinical laboratory evaluations, ECGs, physical examinations: no clinically significant changes
  subjects with adverse events considered by the investigator to be related to treatment: 1 subject
[2]; plasma concentrations up to 80,000 ng/ml (Cmax of 1,500 mg dose)
  QT effect (ΔΔQTcF) from exposure-response analysis: ≤ 10 ms
[2]; single doses 62.5 to 1,500 mg
  effect on heart rate, T-wave morphology, PR and QRS interval: did not have an effect
